Calls of active or inactive are those of the source. The rule behind the calls is not given here.
Experiments:
[1] = system: M21; assay: Inhibition of cell migration in human M21 cells expressing integrin alphaVbeta3 assessed as delay in wound gap closure at 1 nM measured after 9 to 72 hrs by wound scratch assay; type: functional, cell-based; conditions: time 9-72 hrs
[2] = system: OV-MZ-6; assay: Inhibition of cell migration in human OV-MZ-6 cells expressing integrin alpha5beta1 assessed as delay in wound gap closure at 1 to 1000 nM measured after 24 to 72 hrs by wound scratch assay relative to control; type: functional, cell-based; conditions: dose 1-1000 nM, time 24-72 hrs
[3] = target: T1, Integrin alpha-5/beta-1 (Homo sapiens, UniProt P05556+P08648); assay: Agonist activity at integrin alpha5beta1 in human OV-MZ-6 cells assessed as fold increase in p-ERK1/2 expression at 1 uM incubated for 24 hrs by Western blot analysis; type: cell-based; conditions: filed as agonist
[4] = target: T1, Integrin alpha-5/beta-1; assay: Agonist activity at integrin alpha5beta1 in human OV-MZ-6 cells assessed as increase in FAK expression at 1 to 1000 nM measured after 5 to 60 mins by Western blot analysis; type: cell-based; conditions: dose 1-1000 nM, time 5-60 min
[5] = target: T1, Integrin alpha-5/beta-1; assay: Agonist activity at integrin alpha5beta1 in human OV-MZ-6 cells assessed as increase in p-FAK expression at 1 nM measured after 30 to 60 mins by Western blot analysis; type: cell-based; conditions: time 30-60 min
[6] = Inhibition of cell migration in human OV-MZ-6 cells expressing integrin alpha5beta1 assessed as cell coverage at 1 uM measured within 72 hrs by wound scratch assay relative to control; type: functional; parameters: scale not given: the % may be the effect or the level left
[7] = system: M21; assay: Inhibition of cell migration in human M21 cells expressing integrin alphaVbeta3 assessed as delay in wound gap closure at 1 uM measured after 72 hrs by wound scratch assay; type: functional, cell-based
[8] = system: M21; assay: Inhibition of cell migration in human M21 cells expressing integrin alphaVbeta3 assessed as cell coverage at 1 uM measured within 72 hrs by wound scratch assay (reference value: 95 %); type: functional; parameters: scale not given: the % may be the effect or the level left
[9] = system: M21; assay: Inhibition of cell adhesion in human M21 cells expressing integrin alphaVbeta3 at 1 uM measured after 48 hrs by microscopic imaging analysis; type: functional, cell-based
[10] = system: M21; assay: Inhibition of cell adhesion in human M21 cells expressing integrin alphaVbeta3 at 1 nM measured after 48 hrs by microscopic imaging analysis; type: functional, cell-based

- fold change (FC) [3]: 3.1
- Activity [4]: inactive
- Activity [5]: inactive
Structure (SMILES): CC(C)[C@H]1C(=O)N[C@@H](CCCNC(=N)N)C(=O)NCC(=O)N[C@@H](CC(=O)O)C(=O)N[C@H](Cc2ccccc2)C(=O)N1C [CILENGITIDE]
- inhibition [1]: inactive
- inhibition [2]: inactive
- Activity [6]: 60%
- inhibition [7]: Active
- Activity [8]: 40%
- inhibition [9]: Active
- inhibition [10]: inactive

Source: ChEMBL document CHEMBL6153109, “Switching Roles─Exploring Concentration-Dependent Agonistic versus Antagonistic Behavior of Integrin Ligands” (J Med Chem, 2025)
